This note sets out measurements from PMC3201767 (Chemical communications (Cambridge, England), 2011).

Broadly, the kcat is the number of substrate molecules converted per active site and unit of time at saturation. In general, kcat/Km refers to the second-order rate constant that governs catalysis at low substrate concentration.

Common to all, as to experiment: apparent sialyltransferase kinetics
One data set concerns the target T1, His6-Pd2,6ST(16–497) (Photobacterium damselae, UniProt O66375).
T1 sequence (O66375 16-497): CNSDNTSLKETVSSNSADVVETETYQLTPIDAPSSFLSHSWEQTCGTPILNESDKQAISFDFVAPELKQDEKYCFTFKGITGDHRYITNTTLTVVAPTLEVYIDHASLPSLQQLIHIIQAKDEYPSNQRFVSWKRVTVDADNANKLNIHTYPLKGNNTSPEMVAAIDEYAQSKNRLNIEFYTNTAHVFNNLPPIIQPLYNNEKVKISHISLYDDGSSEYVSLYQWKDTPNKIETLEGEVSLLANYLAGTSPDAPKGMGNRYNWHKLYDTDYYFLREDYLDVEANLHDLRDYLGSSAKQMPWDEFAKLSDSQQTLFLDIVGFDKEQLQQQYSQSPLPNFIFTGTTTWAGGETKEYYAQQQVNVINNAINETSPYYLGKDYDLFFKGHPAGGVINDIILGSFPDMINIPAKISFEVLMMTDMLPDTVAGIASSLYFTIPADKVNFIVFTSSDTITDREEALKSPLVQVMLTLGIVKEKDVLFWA
The format is biochemical. To be noted: read-out: His6-Pd2,6ST(16-497); acceptor; donor CMP-Neu5Ac; apparent value.

For another data set, the target named is Psp2,6ST(15–501)-His6 (Photobacterium sp. JT-ISH-224, UniProt A8QYL1). The format is biochemical. To be noted: read-out: Psp2,6ST(15-501)-His6; acceptor; donor CMP-Neu5Ac; apparent value.
Substrate in data set [1]: Cc1cc(=O)oc2cc(O[C@@H]3O[C@H](CO)[C@@H](O[C@@H]4O[C@H](CO)[C@H](O)[C@H](O)[C@H]4O)[C@H](O)[C@H]3O)ccc12
The format is biochemical, Photobacterium sp. JT-ISH-224. To be noted: acceptor; donor CMP-Neu5Ac; apparent value; pH 2.6.

In the case of `CC(=O)N[C@H]1[C@@H](OC[C@H](N)C(=O)O)O[C@H](CO)[C@H](O)[C@@H]1O` [compound 12, GalNAcαSer], the Km at His6-Pd2,6ST(16–497) is 1.6 ± 0.2 mM; at Psp2,6ST(15–501)-His6, 1.4 ± 0.1 mM.

Turning to `CC(=O)N[C@H]1[C@@H](O[C@H](C)[C@H](N)C(=O)O)O[C@H](CO)[C@H](O)[C@@H]1O` [compound 13, GalNAcαThr], the figures for the Km on His6-Pd2,6ST(16–497) and on Psp2,6ST(15–501)-His6 were 10 ± 1 mM and 5.9 ± 1.6 mM, respectively.

Turning to GalNAcα2AA [compound 11], the Km on His6-Pd2,6ST(16–497) came out at 51 ± 5 mM; on Psp2,6ST(15–501)-His6, 9.5 ± 2.7 mM.

B1: Psp2,6ST(15–501)-His6 (Photobacterium sp. JT-ISH-224) (protein)
chain: CNNSEENTQSIIKNDINKTIIDEEYVNLEPINQSNISFTKHSWVQTCGTQQLLTEQNKESISLSVVAPRLDDDEKYCFDFNGVSNKGEKYITKVTLNVVAPSLEVYVDHASLPTLQQLMDIIKSEEENPTAQRYIAWGRIVPTDEQMKELNITSFALINNHTPADLVQEIVKQAQTKHRLNVKLSSNTAHSFDNLVPILKELNSFNNVTVTNIDLYDDGSAEYVNLYNWRDTLNKTDNLKIGKDYLEDVINGINEDTSNTGTSSVYNWQKLYPANYHFLRKDYLTLEPSLHELRDYIGDSLKQMQWDGFKKFNSKQQELFLSIVNFDKQKLQNEYNSSNLPNFVFTGTTVWAGNHEREYYAKQQINVINNAINESSPHYLGNSYDLFFKGHPGGGIINTLIMQNYPSMVDIPSKISFEVLMMTDMLPDAVAGIASSLYFTIPAEKIKFIVFTSTETITDRETALRSPLVQVMIKLGIVKEENVLFWA
As for B1, in data set [1], the Km worked out at 0.36 ± 0.07 mM, the kcat was 1.67 ± 0.167 s⁻¹ and the kcat/Km was determined as 4830 M⁻¹ s⁻¹.
